In brackets after ≈: the same amount, converted by molar mass. Where two headings read alike, the source gives them in different places.
Columns and labels:
[1] = tested on: Escherichia coli ATCC 25922; test: MIC range and interpretive result on gram-negative reference strain; type: cell-based; conditions: for Interpretive result: MIC range against breakpoints LB + UB; for MIC range: data validated by MERLIN Diagnostika GmbH
Protocol: (§1) Determining the susceptibility with the microtiter plate 1 depends on the rehydration of antibiotics by the addition of a standardised bacterial suspension. The result is measured after 18-24 hours incubation at 35-37° C. photometrically with MICRONAUT Skan or another suitable photometer and analysed with MICRONAUT Software or visually read and interpreted.
(§2) Test Procedure 1. Gram Preparation: • Gram-positive bacteria appear blue, gram-negative bacteria red. It is recomended that the gram stain is determined according to standard protocol or the recommendations on the manufacturer's kit. 2. Inoculum Production • Prepare a test tube with 5 ml NaCl 0.9% pH 5.5 to 6.5. • Remove several individually located colonies of a pure culture which is 18-24 hours old from the blood agar (without additives). • Homogenise the colonies well in 5 ml NaCl 0.9% until the turbidity corresponds to a McFarland of 0.5. 3. Inoculation in Broth • 3.1 Mueller-Hinton broth or modified ISO-Sensitest broth. • For gram-negative bacteria, 50 μl of the bacterial suspension is pipetted into 11 ml Mueller-Hinton II broth or modified ISO-Sensitest broth and well homogenised. • For gram-positive bacteria, 100 μl of the bacterial suspension is pipetted into 11 ml Mueller-Hinton II broth or modified ISO-Sensitest broth and well homogenised. • 3.2H-Broth • For fastidious bacteria, 200 μl of the bacterial suspension is transferred into 11 ml preheated H-Broth and homogenised. 4. Inoculation (Broth-Microdilution) • Remove microtiter plate from the individual packaging max. 30 minutes before inoculation and dispose of the dessicant. • Label test plate. • Dispense the prepared suspension according to the plate layout into a 2-channel reservoir. • The inoculation of the microtiter plate is carried out manually with a multi-channel pipette, 100 μl per well. 5. Sealing and Incubation • 5.1 Mueller-Hinton II broth or modified ISO-Sensitest broth • After inoculating seal the test plates with an unperforated adhesive film or cover with an unused microtiter plate (max. 5 test plates stacked). • Incubate test plate 18-24 hours at 35-37° C. • 5.2H-Broth • After inoculating the test plates cover with an unused microtiter plate or with a perforated cover film. • Incubate test plate 22 to 24 hours at 35 to 37° C. in the incubator with CO2 gassing. 6. Reading • Remove adhesive film. • Wipe test plate from below. • Reading of test plate with photometer or visually. 7. Analysis • The bacterial growth is determined using a photometric measurement at a wave length of 620 nm or 690 nm—according to the broth used. • The result is analysed, interpreted and checked for its plausibility by means of MICRONAUT Software. The growth control must be overgrown (turbid), otherwise the test must be repeated. With visual readout the results should be recorded on a plate layout plan. The test result can be seen on the screen or on the findings report. 8. Interpretation of the Results
(§3) Breakpoint Interpretation • For antibiotics which are tested in four or fewer consecutive concentrations or in non-consecutive concentrations, interpreting categories are determined, namely susceptible, intermediate and resistant, on the basis of low and upper breakpoint MIC values (See attachment: Tables IIA and IIB, Tables IIIA, IIIB, IIIC and IIID and Table IV). The lower breakpoint (LB) is represented by the MIC value which prevents sufficient and visible bacterial growth, ie the bacterial isolate is susceptible to the antibiotic. […] Using MICRONAUT Software, MIC values can be automatically analysed and interpreted for a given bacterial isolate and antibiotic. […]

[2] = tested on: Enterococcus faecalis ATCC 29212; conditions: taken from NCCLS, M31-A2, 2002; cited from earlier work
[3] = tested on: Escherichia coli ATCC 25922; conditions: taken from NCCLS, M31-A2, 2002; cited from earlier work
[4] = tested on: Enterococcus faecalis ATCC 29212; test: MIC range and interpretive result on gram-positive reference strain; type: cell-based; conditions: for Interpretive result: MIC range against breakpoints LB + UB; for MIC range: data validated by MERLIN Diagnostika GmbH
Protocol: as §1, §2, §3

[5] = tested on: Pseudomonas aeruginosa ATCC 27853; test: MIC range and interpretive result on gram-negative reference strain; type: cell-based; conditions: for Interpretive result: MIC range against breakpoints LB + UB; for MIC range: data validated by MERLIN Diagnostika GmbH
Protocol: as §1, §2, §3

[6] = tested on: Pseudomonas aeruginosa ATCC 27853; conditions: taken from NCCLS, M31-A2, 2002; cited from earlier work
[7] = tested on: Staphylococcus aureus ATCC 29213; conditions: taken from NCCLS, M31-A2, 2002; cited from earlier work
[8] = tested on: Staphylococcus aureus ATCC 29213; test: MIC range and interpretive result on gram-positive reference strain; type: cell-based; conditions: for Interpretive result: MIC range against breakpoints LB + UB; for MIC range: data validated by MERLIN Diagnostika GmbH
Protocol: as §1, §2, §3

[9] = tested on: S.Tm. Nal2/Rif9/Rtt (vaccine strain); test: Broth microdilution MIC, resistance marker discrimination, vaccine strain S.Tm. Nal2/Rif9/Rtt; type: cell-based, Salmonella Typhimurium; conditions: chicken, validated at Lohmann Animal Health
Protocol: as §1
(§4) Test Procedure 1. Gram Preparation: • Gram-positive bacteria appear blue, gram-negative bacteria red. It is recomended that the gram stain is determined according to standard protocol or the recommendations on the manufacturer's kit. 2. […] Reading • Remove adhesive film. • Wipe test plate from below. • Reading of test plate with photometer or visually. […] Analysis • The bacterial growth is determined using a photometric measurement at a wave length of 620 nm or 690 nm—according to the broth used. • The result is analysed, interpreted and checked for its plausibility by means of MICRONAUT Software. […] With visual readout the results should be recorded on a plate layout plan. […]
(§5) Breakpoint Interpretation • For antibiotics which are tested in four or fewer consecutive concentrations or in non-consecutive concentrations, interpreting categories are determined, namely susceptible, intermediate and resistant, on the basis of low and upper breakpoint MIC values (See attachment: Tables IIA and IIB, Tables IIIA, IIIB, IIIC and IIID and Table IV). […]

[10] = tested on: S.E. Leipzig (field strain); test: Broth microdilution MIC, resistance marker discrimination, field strain S.E. Leipzig; type: cell-based, Salmonella Enteritidis; conditions: chicken, validated at Lohmann Animal Health
Protocol: as §1
as §4, with “2. Inoculum Production • Prepare a test tube with 5 ml NaCl 0.9% pH 5.5 to 6.5. • Remove several individually located colonies of a pure culture which is 18-24 hours old from the blood agar (without additives). • Homogenise the colonies well in 5 ml NaCl 0.9% until the turbidity corresponds to a McFarland of 0.5. 3.” for “2.”
(§6) Breakpoint Interpretation • For antibiotics which are tested in four or fewer consecutive concentrations or in non-consecutive concentrations, interpreting categories are determined, namely susceptible, intermediate and resistant, on the basis of low and upper breakpoint MIC values (See attachment: Tables IIA and IIB, Tables IIIA, IIIB, IIIC and IIID and Table IV). […] Using MICRONAUT Software, MIC values can be automatically analysed and interpreted for a given bacterial isolate and antibiotic. […]

[11] = tested on: S.E. Sm24/Rif12/Ssq (vaccine strain); test: Broth microdilution MIC, resistance marker discrimination, vaccine strain S.E. Sm24/Rif12/Ssq; type: cell-based, Salmonella Enteritidis; conditions: chicken, validated at Lohmann Animal Health
Protocol: as §1
as §4, with “2. Inoculum Production • Prepare a test tube with 5 ml NaCl 0.9% pH 5.5 to 6.5. • Remove several individually located colonies of a pure culture which is 18-24 hours old from the blood agar (without additives). • Homogenise the colonies well in 5 ml NaCl 0.9% until the turbidity corresponds to a McFarland of 0.5. 3.” for “2.”
as §6

[12] = tested on: S.Tm. Moskau 415 (field strain); test: Broth microdilution MIC, resistance marker discrimination, field strain S.Tm. Moskau 415; type: cell-based, Salmonella Typhimurium; conditions: chicken, validated at Lohmann Animal Health
Protocol: as §1, §4, §5

Molecule	Interpretive result [1]	MIC range [2] [µg/mL]	MIC range [3] [µg/mL]	Interpretive result [4]	Interpretive result [5]	MIC range [7] [µg/mL]	Interpretive result [8]	other results
CC1(C)S[C@@H]2[C@H](NC(=O)[C@H](N)c3ccccc3)C(=O)N2[C@H]1C(=O)O [Ampicillin]	S	0.5 to 2	2 to 8	S	–	–	–	–
CO/N=C(\C(=O)N[C@@H]1C(=O)N2C(C(=O)O)=C(CSC(=O)c3ccco3)CS[C@H]12)c1csc(N)n1 [Ceftiofur]	S	–	0.25 to 1	–	R	0.25 to 1	S	MIC range [6]: 16 to 64 µg/mL
CCN1CCN(c2cc3c(cc2F)c(=O)c(C(=O)O)cn3C2CC2)CC1 [Enrofloxacin]	S	0.12 to 1	0.008 to 0.03	S/I	I/R	0.03 to 0.12	S	MIC range [6]: 1 to 4 µg/mL
CC[C@H]1OC(=O)[C@H](C)[C@@H](O[C@H]2C[C@@](C)(OC)[C@@H](O)[C@H](C)O2)[C@H](C)[C@@H](O[C@@H]2O[C@H](C)C[C@H](N(C)C)[C@H]2O)[C@](C)(O)C[C@@H](C)C(=O)[C@H](C)[C@@H](O)[C@]1(C)O [Erythromycin]	–	1 to 4	–	I	–	0.12 to 1	S/I	MIC range [9]: ≦5 μg/ml; MIC range [10]: ≧20 μg/ml; MIC range [11]: ≦5 μg/ml; MIC range [12]: ≧20 μg/ml
CCC[C@@H]1C[C@@H](C(=O)N[C@@H]([C@H]2O[C@H](SC)[C@H](O)[C@@H](O)[C@H]2O)[C@@H](C)O)N(C)C1 [Lincomycin]	–	–	–	R	R	–	S/I	MIC range [5]: 32 µg/mL (≈ 78.7 µM); MIC range [4]: 8 to 32 µg/mL; MIC range [8]: 0.5 to 2 µg/mL
Cc1onc(-c2ccccc2)c1C(=O)N[C@@H]1C(=O)N2[C@@H]1SC(C)(C)[C@@H]2C(=O)O [Oxacillin]	–	8 to 32	–	R	–	0.12 to 0.5	S	–
CC1(C)S[C@@H]2[C@H](NC(=O)Cc3ccccc3)C(=O)N2[C@H]1C(=O)O [Penicillin G]	–	1 to 4	–	S	–	0.25 to 2	R	–
CO[C@H]1/C=C/O[C@@]2(C)Oc3c(C)c(O)c4c(O)c(c(/C=N/N5CCN(C)CC5)c(O)c4c3C2=O)NC(=O)/C(C)=C\C=C\[C@H](C)[C@H](O)[C@@H](C)[C@@H](O)[C@@H](C)[C@H](OC(C)=O)[C@@H]1C [Rifampicin]	–	–	–	–	–	–	–	MIC range [9]: >50 µg/mL; MIC range [10]: <50 µg/mL; MIC range [11]: >50 µg/mL; MIC range [12]: <50 µg/mL
CN[C@@H]1[C@H](O)[C@H](NC)[C@H]2O[C@@]3(O)C(=O)C[C@@H](C)O[C@H]3O[C@@H]2[C@H]1O [Spectinomycin]	S/R	64 to 256	8 to 64	R	–	64 to 256	R	–
[H]/N=C(/N)N[C@H]1[C@H](O)[C@@H](O)[C@H](O[C@@H]2O[C@@H](C)[C@](O)(C=O)[C@H]2O[C@@H]2O[C@@H](CO)[C@H](O)[C@@H](O)[C@@H]2NC)[C@@H](N/C(N)=N\[H])[C@@H]1O [Streptomycin]	–	–	–	–	–	–	–	MIC range [10]: <200 µg/mL; MIC range [11]: >200 µg/mL
CN(C)[C@@H]1C(O)=C(C(N)=O)C(=O)[C@@]2(O)C(O)=C3C(=O)c4c(O)cccc4[C@@](C)(O)[C@H]3C[C@@H]12 [Tetracycline]	S	–	–	I/R	R	–	S	–
C=C[C@]1(C)C[C@@H](OC(=O)CSCCN(CC)CC)[C@]2(C)[C@H](C)CC[C@]3(CCC(=O)[C@H]32)[C@@H](C)[C@@H]1O [Tiamulin]	–	–	–	–	–	0.5 to 2.0	S	–
Colistin	S	–	–	–	S/I	–	R	MIC range [1]: ≦0.5 μg/ml; MIC range [5]: 0.5 to 2 µg/mL; MIC range [8]: 64 µg/mL
Gentamicin	S	4 to 16	0.25 to 1	S/I/R	S	0.12 to 1	S	MIC range [6]: 0.5 to 2 µg/mL
Neomycin	S	–	–	R	–	–	S	MIC range [1]: 0.5 to 2 µg/mL; MIC range [4]: 16 to 64 µg/mL; MIC range [8]: 0.5 to 2 µg/mL

From patent US7642088B2, “Device for susceptibility testing of bacterial pathogens and vaccine strains in poultry” (Lohmann Animal Health GmbH & Co. KG, priority 2004, dated 2010)
